The nature of this data set: in vivo. The settings on record: male, SD, rat, iv, 1 mg/kg.

One may read the AUC(0-inf) as the area under the concentration-time curve extrapolated to infinity. Usually AUC(0-t) stands for the area under the concentration-time curve up to a stated or last time point. Read a high AUC(0-t) as more exposure. Usually Cmax stands for the maximum level reached in the sampled fluid or tissue. A word on the Tmax: it is the time from dosing to the highest level. Broadly, the half-life is the time needed for the level to fall by half in the phase considered.

Molecules are shown by their SMILES.

Experimental: The preliminary pharmacokinetic study was conducted in male SD rats. Two groups with three mice each were set by random. […] The liquid chromatography tandem mass spectrometry (LC-MS/MS) method was pre-built. The system consisted of LC-20AD High Performance Liquid Chromatography (Shimazu, Japan) with Venusil C18 Plus column (2.1*50 mm, 5.0 μm, Agela, USA) and API 4000 mass spectrometry (AB, USA). […] In the LC method, mobile phase A was distilled water and mobile phase B was acetonitrile. The rinse port wash solution was methanol. The flow rate was 0.700 ml/min and the initial back pressure was 8.9 Mpa. […] The subsequent calculation was under a non-compartmental model statistical moment method with WinNonlin 7.0 software (USA).
Two modes of administration were applied. One was the intragastric injection (i.g., or “PO” for “per os”) at a dosage (D) of 3.0 mg/kg, while the other was the intravenous injection (i.v., or “IV”) at a dosage of 1.0 mg/kg.

For the compound `CCCCS(=O)(=O)Oc1ccc(/C=C/C(=O)Nc2cccc(Br)c2)cc1` [Spartinin C10, (E)-4–(3-((3-bromophenyl)amino)-3-oxoprop-1-en-1-yl)phenylbutane-1-sulphonate], the AUC(0-inf) was 184 ± 74.4 ng·h/mL, the AUC(0-t) is 159 ± 65 ng·h/mL, the peak level (Cmax) was 284 ± 270 ng/mL and the Tmax worked out at 5 min. In addition, the half-life is 32.3 ± 13.7 min.
